These are literature values, as cited in patent US8951752B2, “N-demethyase genes and uses thereof” (priority 2011, dated 2015).

The target of the series is T1, Caffeine dehydrogenase (Cdh) from CBB1 (Pseudomonas sp., UniProt D7REY3).
T1 sequence (D7REY3 1-791): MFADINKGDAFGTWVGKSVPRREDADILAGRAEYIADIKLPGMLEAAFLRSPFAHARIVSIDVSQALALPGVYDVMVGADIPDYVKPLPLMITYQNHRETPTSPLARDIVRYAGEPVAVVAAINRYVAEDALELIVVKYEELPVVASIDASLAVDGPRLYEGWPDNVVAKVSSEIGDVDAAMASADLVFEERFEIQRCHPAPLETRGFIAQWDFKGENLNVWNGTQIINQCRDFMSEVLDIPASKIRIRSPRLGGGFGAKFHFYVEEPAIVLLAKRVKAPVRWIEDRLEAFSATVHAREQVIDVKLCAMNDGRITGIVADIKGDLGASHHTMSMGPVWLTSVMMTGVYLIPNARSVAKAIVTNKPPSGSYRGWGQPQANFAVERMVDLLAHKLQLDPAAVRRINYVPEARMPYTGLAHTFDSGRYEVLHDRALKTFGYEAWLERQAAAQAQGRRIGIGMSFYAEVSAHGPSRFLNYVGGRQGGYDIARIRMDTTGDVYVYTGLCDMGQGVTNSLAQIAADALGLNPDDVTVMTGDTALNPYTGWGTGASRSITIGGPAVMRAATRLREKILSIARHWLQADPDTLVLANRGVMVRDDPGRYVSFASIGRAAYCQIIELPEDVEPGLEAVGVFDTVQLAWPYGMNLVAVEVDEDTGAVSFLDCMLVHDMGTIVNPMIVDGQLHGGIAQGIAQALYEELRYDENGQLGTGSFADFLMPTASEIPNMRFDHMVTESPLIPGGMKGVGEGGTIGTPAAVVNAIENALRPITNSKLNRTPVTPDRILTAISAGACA
T1 sequence (D7REY4 1-295 partner): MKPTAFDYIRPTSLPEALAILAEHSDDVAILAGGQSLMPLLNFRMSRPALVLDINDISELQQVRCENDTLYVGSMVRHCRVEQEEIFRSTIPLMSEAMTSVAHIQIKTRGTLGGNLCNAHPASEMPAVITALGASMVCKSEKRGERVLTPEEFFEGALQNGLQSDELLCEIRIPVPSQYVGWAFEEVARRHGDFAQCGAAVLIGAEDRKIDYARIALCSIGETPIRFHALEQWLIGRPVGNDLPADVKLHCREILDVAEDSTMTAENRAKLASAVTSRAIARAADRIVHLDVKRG
T1 sequence (D7REY5 1-167 partner): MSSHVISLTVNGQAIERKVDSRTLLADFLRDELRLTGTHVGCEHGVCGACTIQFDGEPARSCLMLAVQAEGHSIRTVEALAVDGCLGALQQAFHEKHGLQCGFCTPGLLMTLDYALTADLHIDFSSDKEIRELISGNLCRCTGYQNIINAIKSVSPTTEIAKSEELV
The settings on record: cited from earlier work.

With `Cn1cnc2c1c(=O)[nH]c(=O)n2C` [Theobromine, 3,7-dimethylxanthine], the “preference as a substrate, times less than caffeine” value is recorded as 50 times.
